Measured values taken from patent publication US9345742B2, “Aminostatin derivatives for the treatment of arthrosis” (MERCK PATENT GMBH, priority 2011, dated 2016).

How the values were obtained:
bovine explants = test: Cartilage explant assay (pH-induced cartilage degradation, GAG liberation); type: cell-based; details: Bos taurus, 72 h, pH 5.5, 3 days
Source text: In order to investigate the effect of potential cathepsin D inhibitors on cartilage degradation, a pH-induced model based on bovine explants is used. The pH of the medium in which the explants are cultivated is matched here to the pathophysiological pH of an arthrotic knee. This pH is pH 5.5. In this ex vivo model, potential cathepsin D inhibitors are subsequently investigated for their action with respect to stopping of the cartilage degradation process. If the cartilage is destroyed, glycosaminoglycans (GAGs) are released into the cell culture supernatant. The amount of GAGs liberated can be determined quantitatively with the aid of DMMB (dimethylmethylene blue hydrochloride). If sulfated GAGs are detected using dimethylmethylene blue hydrochloride, the decrease in the absorption at 633 nm is utilised. […] In order to determine the concentration, a calibration line is also recorded using chondroitin sulfate.
The bovine explants are firstly prepared. The induction of the cartilage degradation is carried out in 96-multiwell plates. One explant is cultivated per well. In each case, 200 μl of DMEM (incubation medium pH 5.5) without FBS+30 μg/ml of ascorbic acid are added. Thus negative control, explants (n=4) are incubated at pH 7.4 (without FBS). This control is not included in the calculation of the data, but instead ensures that the pH change has the desired effect on the liberation of GAG. At this point, the substances to be tested are added. No preincubation of the explants is carried out. The explants are cultivated with the corresponding substances for 3 days in the incubator at 37° C. and 7.5% CO2.
In order to investigate the effect of cathepsin D inhibitors on the liberation of GAG (glycosaminoglycan), the substances are employed in the desired concentration and cultivated for 3 days. The compounds to be tested are tested in a first experiment in a concentration of 1 μM and 1% of DMSO. Substances which have an effect of >50% on the liberation of GAG (this corresponds to <50% of the control in the Assay Explorer) are tested in the next experiment at 100 nM and 1% of DMSO. Substances which have an effect of >50% on the liberation of GAG under these conditions (this corresponds to <50% of the control in the Assay Explorer) are tested in a concentration/effect relationship. The compounds here are investigated in the following concentrations: 30 μM, 10 μM, 3 μM, 1 μM, […], 0.1 μM, 0.03 μM, 0.01 μM.
The positive control used is pepstatin A with a concentration of 0.01 μM. The assay window is defined by the control (pH 5.5), defined as 0% effect, and the control pH 5.5+0.01 μM pepstatin A, defined as 100% effect. After incubation for 3 days, the cell culture supernatants are collected and stored at −20° C. or measured directly. The amount of liberated GAG is measured photometrically.
The effect (1 value) of the respective substance in % based on the positive control (pH 5.5+0.01 μM pepstatin A) and the negative control (pH 5.5) is reported for concentrations of 1 μM and 100 nM. The value represents the average of 4 replicants. In the determination of a concentration/effect relationship, an IC50 value is reported to the database (Assay Explorer).
The cell culture supernatants (200 μl) are either measured directly or stored at −20° C. In order to ensure an accurate determination of the concentration (μg/ml of GAG in the supernatant) of GAG, the measurement values must be located in the linear region of the standard curve. In order to ensure this, various dilutions are routinely introduced (1/5, 1/10, 1/20, 1/40). The dilutions are prepared with medium and introduced automatically (Hamilton) into a 384-well plate (15 μl). 60 μl of DMMB solution are likewise added automatically (or using a multichannel pipette). A rapid colour reaction occurs, which is subsequently measured at 633 nm using a plate reader (for example Envision).

[1] = biological target: cathepsin D isolated from the human liver (Homo sapiens (Human), UniProt P07339); test: In-vitro fluorescence assay for identification of cathepsin D inhibitors; type: biochemical; details: cathepsin D 1.4 nM, pH 5.5; read-out: CatD assay IC50-
Sequence of cathepsin D isolated from the human liver (P07339 65-161): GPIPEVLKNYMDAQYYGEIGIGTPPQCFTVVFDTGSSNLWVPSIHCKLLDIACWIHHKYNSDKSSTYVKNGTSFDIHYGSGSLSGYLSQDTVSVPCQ
Sequence of cathepsin D isolated from the human liver (P07339 169-412): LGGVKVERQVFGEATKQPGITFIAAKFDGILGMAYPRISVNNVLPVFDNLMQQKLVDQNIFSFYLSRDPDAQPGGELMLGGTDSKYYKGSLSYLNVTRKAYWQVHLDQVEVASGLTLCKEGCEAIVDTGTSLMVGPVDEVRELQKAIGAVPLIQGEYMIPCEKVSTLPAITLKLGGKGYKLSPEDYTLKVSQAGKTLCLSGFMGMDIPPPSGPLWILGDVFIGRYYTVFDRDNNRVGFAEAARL
In short: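 A FRET-quenched MCA/Dnp peptide (5 μM final) was cleaved by 1.4 nM liver-derived human cathepsin D at pH 5.5 in sodium acetate buffer containing CHAPS and 1.25% DMSO. Enzyme and compound dilutions were first incubated 10 min.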

Compound: CCC(CC)NC(=O)[C@@H](NC(=O)C[C@H](N)[C@H](Cc1ccccc1)NC(=O)[C@@H](NC(=O)[C@H](CC(C)C)NC(=O)CC(C)C)C(C)C)[C@@H](C)CC [Compound 39, N-[(1S,2S)-1-(1-Ethylpropylcarbamoyl)-2-methylbutyl]-(S)-3-(S)-amino-4-{(S)-3-methyl-2-[(S)-4-methyl-2-(3-methylbutyryl-amino)pentanoylamino]butyrylamino}-5-phenylpentanamide]
- IC50 (bovine explants): 0.233 nM
- IC50 [1]: 9.9 nM
